# Literature values in patent US20190298669A1 (priority 2018, published 2019).
# Assays:
# viral RNP complexes = conditions: Pleschka et al., 2001; cited from earlier work
# [1] = human, in vivo; cited from earlier work
Structure (SMILES),nuclear cytoplasmic transport of viral RNP complexes (viral RNP complexes),patients experiencing nausea and vomiting [1]
N#CC(=C(/N)Sc1ccccc1N)/C(C#N)=C(\N)Sc1ccccc1N [U0126],leads to a blockade,
CCOC(=O)C1=C[C@@H](OC(CC)CC)[C@H](NC(C)=O)[C@@H](N)C1 [oseltamivir],,10-15%
